According to patent US9969766B2, “20(R)-ginsenoside Rg3 polyacylated derivatives, preparation and application thereof” (priority 2014, dated 2018):

What was measured:
[1] = cited from earlier work
[2] = test system: human stomach cancer MGC cells; test: Human stomach cancer MGC in-situ inoculation, survival; settings: 100 mg/kg/d, ip × 2qod
Description: (§1) human breast cancer Bcap-37 model, human lung cancer A549 model, human intestinal cancer LOVO model, human stomach cancer MGC model and human liver cancer QGY model, with tumor cell lines being of the second generation or more, mouse B16 melanoma cell line, mouse Lewis lung cancer model, mouse sarcoma s180 model, all passaged and preserved in Pharmacological Division of Shanghai Institute of Pharmaceutical Industry. 3. Experiment Animals Origins: nude mice, 6-week old, 18-22 g/mouse, provided by Laboratory Animal Center of Chinese Academy of Sciences, Shanghai Branch, with certification No. 2001A032. C57BL/6 mice and Kunming mice, 18-22 g/mouse, provided by Laboratory Animal Center of Chinese Academy of Sciences, Shanghai Branch, with certification SYXK (Shanghai) 2004-0015. Gender: male or female, the same gender for each batch in experiment Animal numbers: 10 mice and 10 nude mice for each of positive control group and test group in experiment, and 20 for negative control group. 4. Experiment Design Dose Settings: doses for 20(R)-ginsenoside Rg3 octo-acetate, 20(R)-ginsenoside Rg3 octo-n-butyrate and 20(R)-ginsenoside Rg3 octo-n-propionate were set as high-dose group (0.3 mg/kg/d), medium-dose group (0.06 mg/kg/d), and low-dose group (0.012 mg/kg/d). Dosage regimen: oral administration, twice daily. human tumor model and cell-inoculated mouse model: po×14 bid; mouse tumor-inoculated model: po×10 bid. Control Trial: negative control group: given with the same volume of 5% CMC-Na as the test group, and the same dosage regimen as the test group. positive control group: Cyclophosphamide CTX 30 mg/kg, MMC 2 mg/kg and 5Fu 30 mg/kg by intraperitoneal or intravenous administration, once daily, for seven consecutive days. 5. Experiment Method and Key Steps 5.1 Anti-Tumor Test 5.1.1 Subcutaneous Inoculation Model

[3] = test system: human breast cancer Bcap-37 cells; test: Human breast cancer Bcap-37 subcutaneous inoculation in nude mice; settings: 100 mg/kg/d, ip × 2qod
Description: as §1, with “Cyclophosphamide CTX 30 mg/kg, MMC 2 mg/kg and 5Fu 30 mg/kg by intraperitoneal or intravenous administration, once daily, for seven consecutive days.” left out
(§2) Tumor cells of vigorous growth stage were taken under sterile condition and made into cell suspensions of about 1-2×10^7/ml by homogenization, the suspensions were inoculated subcutaneously at 0.2 ml/mouse in host mice and repeated on the next day according to the experiment design, the animals in each group were slaughtered after about three weeks, the tumors were collected and weighed, and the tumor inhibition rates were calculated according to the following equation: tumor inhibition rate %=[(average tumor weight of control group-average tumor weight of treatment group)/average tumor weight of control group]×100%
The same operation was repeated in human tumor xenograft model, except that the feed, packing, cage and contact instruments were all sterilized under high pressure before use and the nude mice were fed in a laminar flow rack. The tumors and tumor-bearing animal weight gains were dynamically measured (tumor size measured using caliper: long diameter/a, short diameter/b, and tumor bulk=a×b^2/2).

mouse sarcoma S180 cells = test: Mouse sarcoma S180 metastasis model; settings: 100 mg/kg/d, ip × 2qod
Description: as §1

mouse Lewis lung cancer [4] = test: Mouse Lewis lung cancer (subcutaneous inoculation) metastasis model; settings: 100 mg/kg/d, ip × 2qod
Description: as §1, §2

[5] = test system: human lung cancer A549 cells; test: Human lung cancer A549 (subcutaneous inoculation) metastasis model; settings: 100 mg/kg/d, ip × 2qod
mouse melanoma B16 cells = test: Mouse melanoma B16 tail vein inoculation, lung metastasis; settings: 100 mg/kg/d, ip × 2qod
Description: as §1

mouse Lewis lung cancer [6] = test: Mouse Lewis lung cancer, toe subcutaneous inoculation, anti-tumor test; settings: 100 mg/kg/d, ip × 14qod
Description: as §1, with “MMC 2 mg/kg and 5Fu 30 mg/kg by intraperitoneal or intravenous administration, once daily, for seven consecutive days.” left out
as §2

[7] = test system: human intestinal cancer LOVO cells; settings: 100 mg/kg/d, ip × 2qod
Description: as §1, with “MMC 2 mg/kg and 5Fu 30 mg/kg by intraperitoneal or intravenous administration, once daily, for seven consecutive days.” left out
LOVO intestinal cancer cells (cultured in vitro) of logarithmic growth stage were taken under sterile condition and prepared into cell suspensions of about 1.8×10^7/ml using RPMI1640 culture medium as diluent. The nude mice were subjected to general anesthesia and cut in belly after routine disinfection to belly skin, the spleens were taken out and inoculated with LOVO intestinal cancer cell suspensions (0.05 ml/mouse) and then restored, the incisions were sutured, and the mice were placed in the cages and then put in the laminar flow rack.

[8] = test system: human liver cancer QGY cells; test: Human liver cancer QGY liver in-situ inoculation, survival; settings: 100 mg/kg/d, ip × 2qod
Description: as §1
Under sterile condition, the in vivo passage of the second generation of QGY tumor source of vigorous growth stage was prepared into cell suspensions of about 1-2×10^7/ml by homogenization (1:6), and the homogenates were filtered using 100-mesh stainless steel screen, getting ready for use. The nude mice were disinfected routinely and anaesthetized and cut at the xiphoid in the middle of the abdominal cavity to expose the liver, the cell suspensions (0.05 ml) were injected into liver parenchyma using imported 28 ga ½ ml syringes, the abdominal cavity was closed and then sutured layer by layer. The nude mice were fed in the laminar flow rack, with all the feed, packing, cage and contact instruments being sterilized under high pressure before use.

[9] = Solubility of the isolated products; type: physicochemical

CC(C)=CCC[C@@](C)(O)[C@H]1CC[C@]2(C)[C@@H]1[C@H](O)C[C@@H]1[C@@]3(C)CC[C@H](O[C@@H]4O[C@H](CO)[C@@H](O)[C@H](O)[C@H]4O[C@@H]4O[C@H](CO)[C@@H](O)[C@H](O)[C@H]4O)C(C)(C)[C@@H]3CC[C@]12C [20 (R)-ginsenoside Rg3, 20 (R)-Ginsenoside Rg3]
Solubility in low polarity or non-polar solvent ([1]; petroleum ether, chloroform and other low polarity or non-polar solvent): not soluble | Solubility in pyridine, ethanol solution, strong acid and strong alkaline solutions ([1]; pyridine, ethanol solution (50%˜70%), strong acid aqueous solutions (pH<2), strong alkaline solutions (pH>10)): easily soluble | Solubility in water and other high polarity solvents ([1]; water and other high polarity solvents): not soluble

O=P1(N(CCCl)CCCl)NCCCO1 (centres unmarked) [CTX, cyclophosphamide, reference compound]
Animal body weight (g) Start [2]: 19.5 g | Animal body weight (g) end [2]: 21.1 g | Average survival (d) X ± SD [2]: 41.22 ± 3.5 days | Life extension rate T/C × % [2]: 181.01% | Animal body weight (g) Start [3]: 20.4 g | Animal body weight (g) end [3]: 22.0 g | Tumor inhibition rate % [3]: 89.90% | Tumor weight (g) X ± SD [3]: 0.130 ± 0.06 g | Animal body weight (g) Start (mouse sarcoma S180 cells): 20.2 g | Animal body weight (g) end (mouse sarcoma S180 cells): 21.0 g | Anti-metastasis rate % (mouse sarcoma S180 cells): 93.84% | Lung clone numbers (mice) X ± SD (mouse sarcoma S180 cells): 0.18 ± 2.1 | Animal body weight (g) Start (mouse Lewis lung cancer [4]): 19.4 g | Animal body weight (g) end (mouse Lewis lung cancer [4]): 21.0 g | Anti-metastasis rate % (mouse Lewis lung cancer [4]): 82.12% | Lung clone numbers (mice) X ± SD (mouse Lewis lung cancer [4]): 0.50 ± 0.09 | Animal body weight (g) Start [5]: 19.6 g | Animal body weight (g) end [5]: 21.3 g | Anti-metastasis rate % [5]: 85.10% | Lung clone numbers (mice) X ± SD [5]: 0.29 ± 0.12 | Animal body weight (g) Start (mouse melanoma B16 cells): 20.1 g | Animal body weight (g) end (mouse melanoma B16 cells): 21.4 g | Anti-metastasis rate % (mouse melanoma B16 cells): 95.30% | Lung clone numbers (mice) X ± SD (mouse melanoma B16 cells): 2.26 ± 2.8 | Animal body weight (g) Start (mouse Lewis lung cancer [6]): 20.2 g | Animal body weight (g) end (mouse Lewis lung cancer [6]): 21.9 g | Tumor inhibition rate % (mouse Lewis lung cancer [6]): 93.92% | Tumor-bearing toe weight (g) X ± SD (mouse Lewis lung cancer [6]): 0.0541 ± 0.02 g | Animal body weight (g) Start [7]: 19.5 g | Animal body weight (g) end [7]: 21.1 g | Average survival (d) X ± SD [7]: 29.36 ± 3.3 days | Life extension rate T/C × % [7]: 214.91% | Animal body weight (g) Start [8]: 19.1 g | Animal body weight (g) end [8]: 21.0 g | Average survival (d) X ± SD [8]: 37.23 ± 3.4 days | Life extension rate T/C × % [8]: 159.44%

CCCCCC(=O)OC[C@H]1O[C@@H](OC2CC[C@]3(C)C(CC[C@@]4(C)C3C[C@H](OC(=O)CCCCC)C3C([C@@](C)(O)CCC=C(C)C)CC[C@@]34C)C2(C)C)[C@H](OC2O[C@H](COC(=O)CCCCC)[C@@H](OC(=O)CCCCC)[C@H](OC(=O)CCCCC)[C@H]2OC(=O)CCCCC)[C@@H](OC(=O)CCCCC)[C@@H]1OC(=O)CCCCC (stereo partly drawn) [20(R)-Ginsenoside Rg3 octo-n-hexanoate]
Solubility in ethanol ([9]; ethanol): soluble | Solubility in water ([9]; water): soluble
